Results from US9566312B2, “Cyclic peptides and use as medicines” (priority 2012, dated 2017).
Starred links: 1 amine or outer side, 2 acyl side, 3 side chain; linkers in the order of their positions; H or OH if unused. Non-standard residues stand in square brackets, D forms with d. Residues, ends and D or L forms follow the SMILES beside them. X5 = C[C@H](COC(=O)N1CCN(C)CC1)[C@@H](C(=O)[*:2])N(C)[*:1]; X3 = C[C@H](CN1CCOCC1)[C@@H](C(=O)[*:2])N(C)[*:1]; MeBmt = C/C=C/C[C@@H](C)[C@@H](O)[C@H](NC)C(=O)O; X2 = COCC[C@@H](C)[C@@H](C(=O)[*:2])N(C)[*:1]; NMeL = CN[C@@H](CC(C)C)C(=O)O; NMeV = CN[C@H](C(=O)O)C(C)C; dNMeA = CN[C@H](C)C(=O)O; Abu = CC[C@H](N)C(=O)O

What was measured:
cyclophilin A (CypA) = cyclophilin A (CypA) (Homo sapiens (Human), UniProt P62937); assay: Inhibitor binding to cyclophilin proteins by SPR, CypA; parameters: unit not given here; conditions: 1:1 binding model;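 further: Single-cycle kinetics on a Biacore T200, compound injected at several concentrations for 1 min each at 50 µL/min, then 10 min dissociation, in HEPES pH 7.4 buffer with 3% DMSO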
cyclophilin B (CypB) = cyclophilin B (CypB) (Homo sapiens (Human), UniProt P23284); assay: Inhibitor binding to cyclophilin proteins by SPR, CypB; parameters: unit not given here; conditions: 1:1 binding model
In short: (§1)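 SPR, single-cycle kinetics. Avi-tagged, mono-biotinylated protein on Biotin CAPture chip; running buffer 10 mM HEPES pH 7.4, 150 mM NaCl, 0.05% P20, 3% DMSO. 1 min contacts at 50 μL/min, 10 min dissociation. kon/koff/KD from 1:1 fit.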

CypF = CypF (Homo sapiens (Human), UniProt P30405); assay: Inhibitor binding to cyclophilin proteins by SPR, CypF; conditions: 1:1 binding model
In short: as §1

[1] = tested on: genotype 1b subgenomic HCV replicon in Huh7.5 cells; format: cell-based, hepatitis C virus; conditions: genotype 1b replicon, 72 h incubation; read-out: RPLN-1b IC50
In short: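 Huh7.5 cells carrying genotype 1b subgenomic HCV replicon with renilla luciferase-neomycin reporter, in phenol red-free DMEM without G418. Luciferase measured after 72 h compound exposure relative to DMSO-treated cells; cytotoxicity (CC50) by Cell Titer-Glo.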

[2] = tested on: peripheral blood mononuclear cells (PBMC); assay: Anti-proliferative or immunosuppressive activity, BrdU incorporation in PHA-stimulated PBMC; format: cell-based; conditions: PHA 3 μg/ml, 60 hour compound treatment; read-out: EMV PBMC IC50
In short: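 Fresh PBMCs from two donors, 30,000 per well in X-VIVO 15 medium, stimulated with 3 μg/ml PHA to drive T-cell proliferation. Proliferation measured as BrdU incorporation into DNA by BrdU ELISA.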

Human MRP2 = Human MRP2 (Homo sapiens (Human), UniProt Q92887); assay: MRP2 transporter vesicle assay; format: in vitro ADME
Protocol: Method 4: Measuring Hepatic Transporter Interactions […] […] MRP2 Assay: Human MRP2 inhibition was tested using a BD Gentest Transporter Vesicle Assay Kit. Inside-out vesicles were prepared from insect Sf9 cells infected with baculovirus expressing hMRP2. […] The percent remaining of ATP dependent uptake activity was calculated as uptake activity in the presence of inhibitor divided by the uptake activity in the absence of inhibitor.

[3] = molecular target: organic anion transporting polypeptide 1B1 (OATP1B1) (Homo sapiens (Human), UniProt Q9Y6L6); assay: OATP assay in CHO-OATP1B1 cells;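 further: inhibition of probe substrate uptake into the cells, ten minutes exposure, accumulated substrate read by fluorescence once cells were lysed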
CYP3A4 = CYP3A4 (Homo sapiens (Human), UniProt P08684); assay: Time-dependent inhibition of CYP3A4;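 further: Two-step in vitro assay, kobs derived from residual CYP3A4 activity versus preincubation time per concentration, then kinact and KI by nonlinear fit of kobs against concentration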
Protocol: Method 5: Measuring Time-Dependent Inhibition of CYP3A4
The CYP3A4 time dependent inhibition potential of various inhibitors was determined by a two step in vitro assay. […] The inactivation rate constant (kobs) was obtained by plotting the activity remaining over pre-incubation time for each concentration of compound. The maximal inactivation rate (kinact) and the inactivation potency (KI) were calculated by non linear regression analysis of the inactivation rate constant (kobs) versus compound concentrations [I] curve according to the equation kobs=[kinact·[I]]/[KI+[I]]

hepatitis C virus = conditions: patients, 1200 mg twice daily; cited from earlier work
HCV replicon = conditions: cited from earlier work
HBV in HepG2215 cells = conditions: cited from earlier work

CYP3A4, sequence (P08684 whole entry): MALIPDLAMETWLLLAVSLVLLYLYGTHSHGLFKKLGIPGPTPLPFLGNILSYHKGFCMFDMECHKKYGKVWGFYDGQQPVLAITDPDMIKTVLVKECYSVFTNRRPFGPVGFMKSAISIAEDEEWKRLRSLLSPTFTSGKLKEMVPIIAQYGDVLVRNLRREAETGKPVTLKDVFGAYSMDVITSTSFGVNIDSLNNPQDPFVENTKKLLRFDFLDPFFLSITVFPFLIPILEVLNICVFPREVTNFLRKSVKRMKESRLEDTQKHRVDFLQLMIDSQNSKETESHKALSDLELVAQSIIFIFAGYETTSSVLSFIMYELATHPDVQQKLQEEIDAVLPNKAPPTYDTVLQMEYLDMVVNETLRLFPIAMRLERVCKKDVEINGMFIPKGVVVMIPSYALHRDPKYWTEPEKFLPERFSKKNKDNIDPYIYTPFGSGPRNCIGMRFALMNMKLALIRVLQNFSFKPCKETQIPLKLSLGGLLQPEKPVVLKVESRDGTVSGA
CypF, sequence (P30405 30-207): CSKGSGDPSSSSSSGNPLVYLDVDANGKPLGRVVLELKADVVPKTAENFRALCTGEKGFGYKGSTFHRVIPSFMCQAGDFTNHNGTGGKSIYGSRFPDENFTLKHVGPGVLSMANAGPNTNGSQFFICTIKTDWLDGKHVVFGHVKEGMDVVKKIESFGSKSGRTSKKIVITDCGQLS
cyclophilin A (CypA), sequence (P62937 whole entry): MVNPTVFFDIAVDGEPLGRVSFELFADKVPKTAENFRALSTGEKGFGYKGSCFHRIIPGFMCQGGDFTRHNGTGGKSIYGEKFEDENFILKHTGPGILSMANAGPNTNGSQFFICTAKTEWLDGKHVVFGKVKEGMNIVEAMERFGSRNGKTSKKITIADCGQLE
cyclophilin B (CypB), sequence (P23284 34-216): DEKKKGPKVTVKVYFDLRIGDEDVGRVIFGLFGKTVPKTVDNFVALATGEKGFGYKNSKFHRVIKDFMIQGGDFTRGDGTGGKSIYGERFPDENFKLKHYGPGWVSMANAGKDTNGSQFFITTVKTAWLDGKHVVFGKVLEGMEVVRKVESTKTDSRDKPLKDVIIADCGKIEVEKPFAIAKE
Human MRP2, sequence (Q92887 whole entry): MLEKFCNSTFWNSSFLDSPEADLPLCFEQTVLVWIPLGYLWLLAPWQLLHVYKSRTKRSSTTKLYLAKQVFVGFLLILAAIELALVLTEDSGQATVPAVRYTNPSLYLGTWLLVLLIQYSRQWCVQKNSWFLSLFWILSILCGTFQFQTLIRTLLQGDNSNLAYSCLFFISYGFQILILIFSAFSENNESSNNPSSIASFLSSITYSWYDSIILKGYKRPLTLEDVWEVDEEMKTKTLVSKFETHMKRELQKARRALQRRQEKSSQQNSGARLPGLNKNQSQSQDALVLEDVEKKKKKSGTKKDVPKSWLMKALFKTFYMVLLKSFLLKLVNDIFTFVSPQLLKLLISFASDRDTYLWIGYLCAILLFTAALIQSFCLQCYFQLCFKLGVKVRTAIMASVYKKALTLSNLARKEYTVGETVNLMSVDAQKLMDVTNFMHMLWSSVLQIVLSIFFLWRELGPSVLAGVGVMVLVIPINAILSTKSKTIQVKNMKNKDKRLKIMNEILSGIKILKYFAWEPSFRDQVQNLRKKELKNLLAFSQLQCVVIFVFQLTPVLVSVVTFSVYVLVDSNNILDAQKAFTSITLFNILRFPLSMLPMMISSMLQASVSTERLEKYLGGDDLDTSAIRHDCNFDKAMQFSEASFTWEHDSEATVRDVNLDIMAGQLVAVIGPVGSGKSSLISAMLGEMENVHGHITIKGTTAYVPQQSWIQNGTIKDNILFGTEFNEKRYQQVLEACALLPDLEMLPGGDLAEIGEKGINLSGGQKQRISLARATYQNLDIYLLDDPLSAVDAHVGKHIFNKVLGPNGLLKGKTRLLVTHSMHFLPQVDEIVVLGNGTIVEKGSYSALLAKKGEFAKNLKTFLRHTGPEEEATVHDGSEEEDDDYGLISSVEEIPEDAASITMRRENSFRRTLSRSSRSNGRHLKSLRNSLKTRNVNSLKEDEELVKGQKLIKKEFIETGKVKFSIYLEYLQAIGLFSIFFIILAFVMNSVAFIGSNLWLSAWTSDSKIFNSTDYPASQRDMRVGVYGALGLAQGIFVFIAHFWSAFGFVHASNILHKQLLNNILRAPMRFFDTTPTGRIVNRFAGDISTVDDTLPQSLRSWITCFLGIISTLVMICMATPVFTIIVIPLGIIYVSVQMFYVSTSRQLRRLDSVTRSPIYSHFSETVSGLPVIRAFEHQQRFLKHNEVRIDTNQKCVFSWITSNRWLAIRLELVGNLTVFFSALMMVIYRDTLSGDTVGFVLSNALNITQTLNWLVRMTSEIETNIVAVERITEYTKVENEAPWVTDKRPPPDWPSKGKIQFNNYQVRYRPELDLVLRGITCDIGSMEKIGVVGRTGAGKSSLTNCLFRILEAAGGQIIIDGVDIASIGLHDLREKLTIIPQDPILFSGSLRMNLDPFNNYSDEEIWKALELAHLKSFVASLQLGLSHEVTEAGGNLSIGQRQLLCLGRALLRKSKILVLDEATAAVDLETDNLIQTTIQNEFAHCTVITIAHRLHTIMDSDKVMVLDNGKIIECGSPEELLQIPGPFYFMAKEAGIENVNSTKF
organic anion transporting polypeptide 1B1 (OATP1B1), sequence (Q9Y6L6 whole entry): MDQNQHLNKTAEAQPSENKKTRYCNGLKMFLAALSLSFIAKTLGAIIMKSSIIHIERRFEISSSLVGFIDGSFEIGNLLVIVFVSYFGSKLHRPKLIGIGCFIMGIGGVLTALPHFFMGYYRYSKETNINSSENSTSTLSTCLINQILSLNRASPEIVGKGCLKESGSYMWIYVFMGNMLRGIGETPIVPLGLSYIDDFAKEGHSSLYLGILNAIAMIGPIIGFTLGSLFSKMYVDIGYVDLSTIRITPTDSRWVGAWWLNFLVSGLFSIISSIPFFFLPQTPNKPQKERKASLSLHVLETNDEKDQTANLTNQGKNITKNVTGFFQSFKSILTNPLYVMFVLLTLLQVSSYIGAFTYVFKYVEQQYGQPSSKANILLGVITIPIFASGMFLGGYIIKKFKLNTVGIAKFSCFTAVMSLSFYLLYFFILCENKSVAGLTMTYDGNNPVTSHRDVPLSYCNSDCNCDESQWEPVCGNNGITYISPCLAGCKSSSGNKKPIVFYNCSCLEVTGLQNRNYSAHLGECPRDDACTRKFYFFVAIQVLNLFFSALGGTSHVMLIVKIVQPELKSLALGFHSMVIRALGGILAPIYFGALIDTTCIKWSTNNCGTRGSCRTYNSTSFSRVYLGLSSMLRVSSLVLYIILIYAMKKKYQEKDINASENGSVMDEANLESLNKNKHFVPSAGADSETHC

## C/C=C/C[C@@H](C)[C@@H](O)[C@H]1C(=O)N[C@@H](CC)C(=O)N(C)[C@H](C)C(=O)N(C)[C@@H]([C@H](C)CN2CCOCC2)C(=O)N[C@@H](C(C)C)C(=O)N(C)[C@@H](CC(C)C)C(=O)N[C@@H](C)C(=O)N[C@H](C)C(=O)N(C)[C@@H](CC(C)C)C(=O)N(C)[C@@H](CC(C)C)C(=O)N(C)[C@@H](C(C)C)C(=O)N1C [Compound 2.5.2, 3-[D-Ala]-4-[(2S,3R)-3-methyl-2-(methylamino)-4-morpholinobutanoyl]-cyclosporin] (cyclo(A[dA][NMeL][NMeL][NMeV][MeBmt][Abu][dNMeA][X3]V[NMeL]))
Cyclophilin A (CypA)
  CypA Kd: 4.3
Cyclophilin B (CypB)
  CypB Kd: 2.9
CypF
  CypF Kd: 0.0022 µM
[1]
  IC50: 0.1 µM
[2]
  IC50: 6.3 µM
Human MRP2
  IC50: 18 µM
[3]
  IC50: 8.2 µM
CYP3A4
  Ki: > 50 µM

## C/C=C/C[C@@H](C)[C@@H](O)[C@H]1C(=O)N[C@@H](CC)C(=O)N(C)[C@H](C)C(=O)N(C)[C@@H]([C@H](C)COC(=O)N2CCN(C)CC2)C(=O)N[C@@H](C(C)C)C(=O)N(C)[C@@H](CC(C)C)C(=O)N[C@@H](C)C(=O)N[C@H](C)C(=O)N(C)[C@@H](CC(C)C)C(=O)N(C)[C@@H](CC(C)C)C(=O)N(C)[C@@H](C(C)C)C(=O)N1C [Compound 2.5.9, 3-[D-Ala]-4-[(2S,3S)-3-methyl-2-(methylamino)-4-((4-methylpiperazine-1-carbonyl)oxy)butanoyl]-cyclosporin] (cyclo(A[dA][NMeL][NMeL][NMeV][MeBmt][Abu][dNMeA][X5]V[NMeL]))
Cyclophilin A (CypA)
  CypA Kd: 0.8
Cyclophilin B (CypB)
  CypB Kd: 0.5
CypF
  CypF Kd: 0.0003 µM
[1]
  IC50: 0.09 µM
[2]
  IC50: 17.7 µM
Human MRP2
  IC50: 21 µM
[3]
  IC50: 6.7 µM
CYP3A4
  Ki: > 50 µM

## C/C=C/C[C@@H](C)[C@@H](O)[C@H]1C(=O)N[C@@H](CC)C(=O)N(C)[C@H](C)C(=O)N(C)[C@@H]([C@H](C)CCOC)C(=O)N[C@@H](C(C)C)C(=O)N(C)[C@@H](CC(C)C)C(=O)N[C@@H](C)C(=O)N[C@H](C)C(=O)N(C)[C@@H](CC(C)C)C(=O)N(C)[C@@H](CC(C)C)C(=O)N(C)[C@@H](C(C)C)C(=O)N1C [Compound 2.13, 3-[D-Ala]-4-[(2S,3R)-5-methoxy-3-methyl-2-(methylamino)pentanoyl]-cyclosporin] (cyclo(A[dA][NMeL][NMeL][NMeV][MeBmt][Abu][dNMeA][X2]V[NMeL]))
Cyclophilin A (CypA)
  CypA Kd: 1.7
Cyclophilin B (CypB)
  CypB Kd: 0.8
CypF
  CypF Kd: 0.0008 µM
[1]
  IC50: 0.041 µM
[2]
  IC50: 2.6 µM
Human MRP2
  IC50: 13 µM
[3]
  IC50: 2.3 µM
CYP3A4
  Ki: > 50 µM

## C/C=C/C[C@@H](C)[C@@H](O)[C@H]1C(=O)N[C@@H](CC)C(=O)N(C)[C@H](C)C(=O)N(CC)[C@@H](C(C)C)C(=O)N[C@@H](C(C)C)C(=O)N(C)[C@@H](CC(C)C)C(=O)N[C@@H](C)C(=O)N[C@H](C)C(=O)N(C)[C@@H](CC(C)C)C(=O)N(C)[C@@H](CC(C)C)C(=O)N(C)[C@@H](C(C)C)C(=O)N1C [DEBIO-025]
Hepatitis C virus
  mean hepatitis C load: significantly decreased

## C=CC[C@@H]1/C=C(\C)C[C@H](C)C[C@H](OC)[C@H]2O[C@@](O)(C(=O)C(=O)N3CCCC[C@H]3C(=O)O[C@H](/C(C)=C/[C@@H]3CC[C@@H](O)[C@H](OC)C3)[C@H](C)[C@@H](O)CC1=O)[C@H](C)C[C@@H]2OC [FK506]
HCV replicon
  effect on HCV replication: did not have significant effect

## C/C=C/C[C@@H](C)[C@@H](O)[C@H]1C(=O)N[C@@H](CC)C(=O)N(C)CC(=O)N(C)[C@@H]([C@@H](C)CC)C(=O)N[C@@H](C(C)C)C(=O)N(C)[C@@H](CC(C)C)C(=O)N[C@@H](C)C(=O)N[C@H](C)C(=O)N(C)[C@@H](CC(C)C)C(=O)N(C)[C@@H](CC(C)C)C(=O)N(C)[C@@H](C(C)C)C(=O)N1C [NIM811]
HBV in HepG2215 cells
  reduction of HBsAg secretion from cells compared with controls: about 50%

## C/C=C/C[C@@H](C)[C@@H](O)[C@H]1C(=O)N[C@@H](CC)C(=O)N(C)[C@H](C)C(=O)N(CC)[C@@H](C(C)C)C(=O)N[C@@H](C(C)C)C(=O)N(C)[C@@H](CC(C)C)C(=O)N[C@@H](C)C(=O)N[C@H](C)C(=O)N(C)[C@@H](CC(C)C)C(=O)N(C)[C@@H](CC(C)C)C(=O)N(C)[C@@H](C(C)C)C(=O)N1C [alisporivir]
HBV in HepG2215 cells; 5.0 mcg/mL, 72 hours
  reduction in intracellular HBV DNA levels: 10 fold
HBV in HepG2215 cells
  reduction of HBsAg secretion from cells compared with controls: about 50%
